Test results published in PubChem BioAssay AID1845200 (Molecular Pharmacology Branch, DTP, NCI, 2023).

Test system: ASPS-1 complex tumor spheroids, viability
Assay: Anticancer human tumor ASPS-1 cell line growth inhibition;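 note: spheroids exposed to agents for 7 days after 3 days of growth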;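 for viability, T/C: 100% = DMSO vehicle treated spheroids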
Conditions: for IC50: curve of first compound; for viability, T/C: stronger effect = lower value
Excerpt: Multicellular complex tumor spheroid response to DNA repair inhibitors in combination with DNA-damaging drugs
This study explores the anticancer activities of DNA-damaging drugs and inhibitors of DNA damage repair, both as single agents and in combinations. Complex tumor spheroids comprised of malignant cells, endothelial cells and mesenchymal stem cells served as an in vitro model for human solid tumors. This model system incorporates physiologically relevant features and patient-derived or established malignant cell lines with clinically relevant genetic alterations from many tumor types. Twenty-six patient-derived or established malignant cell lines were evaluated representing sarcoma, melanoma, small cell lung cancer (SCLC), non-small cell lung cancer (NSCLC), as well as bladder, ovarian and pancreatic cancers. The concentration ranges selected for each drug and investigational agent were based upon clinically achievable concentrations if the clinical Cmax of the agent was known.
Compounds. The drugs and compounds olaparib (NSC753686), talazoparib (NSC767125), berzosertib (NSC777718), elimusertib (NSC800525), nedisertib (NSC802822), VX-984 (NSC792969), AZD-1390 (NSC803789), temozolomide (NSC362856), topotecan (NSC609699), trabectedin (NSC813783), staurosporine (NSC755774), and gemcitabine (NSC613327) were obtained from the National Cancer Institute (NCI) Developmental Therapeutics Program Chemical Repository. The FDA-approved anticancer drug set is available from the Developmental Therapeutics Program at https://dtp.cancer.gov/organization/dscb/obtaining/available_plates.htm. […] The stock solutions were prepared in dimethyl sulfoxide (DMSO, Sigma-Aldrich, St. Louis, MO, cat. D2650) at 400-fold the tested concentration and stored at -70 degrees C. Prior to their use, the stock solutions were diluted in fresh medium and the final DMSO concentration in the assay was 0.25% (v/v). All drugs and investigational agents were tested over a range starting from a high concentration at or near the clinical Cmax and decreasing in half-log increments. If the clinical Cmax for an agent had not been determined, the highest concentration tested was 10 microM.
Cell Lines. The patient-derived cancer cell (PDC) lines: 156681-154-R-J1-PDC, 283228-195-R-J1-PDC, 287954-098-R-J1-PDC, 292921-168-R-J2-PDC, 349418-098-R-PDC, 425362-245-T-J1-PDC, 556581-035-R-J1-PDC, and BL0293-F563-PDC were received from the NCI Patient-Derived Models Repository (PDMR, https://pdmr.cancer.gov). The established cell lines HS-SY-2 (RRID:CVCL_8719), MPNST, and SYO-1 (RRID:CVCL_7146) were obtained from the Sloan Kettering Institute. The alveolar soft parts sarcoma cell line ASPS-1 (RRID:CVCL_S738) was established at the NCI and grown from internal seed stocks. The following established cell lines were purchased from the American Type Culture Collection (ATCC, Manassas, VA): G-401 (ATCC, cat. CRL-1441, RRID:CVCL_0270), SW982 (ATCC, cat. HTB-93, RRID:CVCL_1734), VA-ES-BJ (ATCC, cat. CRL-2138, RRID:CVCL_1785), NCI-H719 (ATCC, cat. CRL-5837, RRID:CVCL_1582), NCI-H196 (ATCC, cat. CRL-5823, RRID:CVCL_1509), NCI-H841 (ATCC, cat. CRL-5845, RRID:CVCL_1595), NCI-H1618 (ATCC, cat. CRL-5879, RRID:CVCL_1480), NCI-H1876 (ATCC, cat. CRL-5902, RRID:CVCL_1503), DMS 114 (ATCC, cat. CRL-2066; RRID:CVCL_1174), NCI-H211 (ATCC, cat. CRL-5824; RRID:CVCL_1529), and SW 1271 (ATCC, cat. CRL-2177, RRID:CVCL_1716). The small cell lung cancer cell line COR-L88 was purchased from Sigma-Aldrich (cat. 92031917-1VL, RRID:CVCL_1141). The non-small cell lung cancer cell lines NCI-H226 (RRID:CVCL_1544) and NCI-H322M (RRID:CVCL_1557) were established at the NCI and grown from internal seed stocks. Pooled donor human umbilical vein endothelial cells (HUVEC, Lonza, cat. CC-2519) and human mesenchymal stem cells (hMSC, Lonza, cat. PT-2501) were purchased from Lonza (Walkersville, MD).
Cell Culture. All cells were maintained in an incubator at 37 degrees C and 5% CO2 with 95% humidity. […]

[1] = second compound 0.003 µM, first compound 0.0316 µM
[2] = second compound 0.003 µM, first compound 0.1 µM
[3] = second compound 0.003 µM, first compound 0.316 µM
[4] = second compound 0.003 µM, first compound 1 µM
[5] = second compound 0.003 µM, first compound 3.16 µM
[6] = second compound 0.003 µM, first compound 10 µM
[7] = second compound 0.00949 µM, first compound 0.0316 µM
[8] = second compound 0.00949 µM, first compound 0.1 µM
[9] = second compound 0.00949 µM, first compound 0.316 µM
[10] = second compound 0.00949 µM, first compound 1 µM
[11] = second compound 0.00949 µM, first compound 3.16 µM
[12] = second compound 0.00949 µM, first compound 10 µM
[13] = second compound 0.03 µM, first compound 0.0316 µM
[14] = second compound 0.03 µM, first compound 0.1 µM
[15] = second compound 0.03 µM, first compound 0.316 µM
[16] = second compound 0.03 µM, first compound 1 µM
[17] = second compound 0.03 µM, first compound 3.16 µM
[18] = second compound 0.03 µM, first compound 10 µM
[19] = second compound 0.0949 µM, first compound 0.0316 µM
[20] = second compound 0.0949 µM, first compound 0.1 µM
[21] = second compound 0.0949 µM, first compound 0.316 µM
[22] = second compound 0.0949 µM, first compound 1 µM
[23] = second compound 0.0949 µM, first compound 3.16 µM
[24] = second compound 0.0949 µM, first compound 10 µM
[25] = second compound 0.3 µM, first compound 0.0316 µM
[26] = second compound 0.3 µM, first compound 0.1 µM
[27] = second compound 0.3 µM, first compound 0.316 µM
[28] = second compound 0.3 µM, first compound 1 µM
[29] = second compound 0.3 µM, first compound 3.16 µM
[30] = second compound 0.3 µM, first compound 10 µM

Compound	IC50 (second compound 0.003 µM) [µM]	IC50 (second compound 0.00949 µM) [µM]	IC50 (second compound 0.03 µM) [µM]	IC50 (second compound 0.0949 µM) [µM]	IC50 (second compound 0.3 µM) [µM]	viability, T/C [1] [%]	viability, T/C [2] [%]	viability, T/C [3] [%]	viability, T/C [4] [%]	viability, T/C [5] [%]	viability, T/C [6] [%]	viability, T/C [7] [%]	viability, T/C [8] [%]	viability, T/C [9] [%]	viability, T/C [10] [%]	viability, T/C [11] [%]	viability, T/C [12] [%]	viability, T/C [13] [%]	viability, T/C [14] [%]	viability, T/C [15] [%]	further results
CC1COCCN1c1cc(-c2ccnn2C)c2ccnc(-c3ccn[nH]3)c2n1 (stereo not given) + CC[C@@]1(O)C(=O)OCc2c1cc1n(c2=O)Cc2cc3c(CN(C)C)c(O)ccc3nc2-1	0.224	0.0608	< 0.0316	< 0.0316	< 0.0316	73.9	59.1	46.2	44.5	47.8	43.5	56.9	48.7	39.9	40.1	46.8	42.3	38.7	35.1	35.8	viability, T/C [16]: 39.6%; viability, T/C [17]: 42.1%; viability, T/C [18]: 42.5%; viability, T/C [19]: 26.7%; viability, T/C [20]: 26.5%; viability, T/C [21]: 28.7%; viability, T/C [22]: 34.1%; viability, T/C [23]: 41.9%; viability, T/C [24]: 36.4%; viability, T/C [25]: 23.3%; viability, T/C [26]: 23.2%; viability, T/C [27]: 23.5%; viability, T/C [28]: 33.8%; viability, T/C [29]: 44.6%; viability, T/C [30]: 38.6%
COc1cc(C)[nH]c(=O)c1CN1CCc2c(Cl)cc(C(OC)C3COC3)c(Cl)c2C1=O (stereo not given) + CC[C@@]1(O)C(=O)OCc2c1cc1n(c2=O)Cc2cc3c(CN(C)C)c(O)ccc3nc2-1	> 10	> 10	> 10	> 10	> 10	107	111	99.3	98.7	99.9	101	112	110	107	98.9	98.9	98.8	84.6	89.1	88.8	viability, T/C [16]: 87.2%; viability, T/C [17]: 91.3%; viability, T/C [18]: 82.8%; viability, T/C [19]: 61.8%; viability, T/C [20]: 61.7%; viability, T/C [21]: 60.2%; viability, T/C [22]: 62.7%; viability, T/C [23]: 58.4%; viability, T/C [24]: 59.3%; viability, T/C [25]: 69.7%; viability, T/C [26]: 64.8%; viability, T/C [27]: 69.2%; viability, T/C [28]: 64.9%; viability, T/C [29]: 64.2%; viability, T/C [30]: 65.7%
Cc1cc(C)c(CNC(=O)c2cc(-c3ccc(CN4CCOCC4)cc3)cc3c2cnn3C2CCCC2)c(=O)[nH]1 + CC[C@@]1(O)C(=O)OCc2c1cc1n(c2=O)Cc2cc3c(CN(C)C)c(O)ccc3nc2-1	> 10	> 10	> 10	0.777	< 0.0316	100	106	94.2	93.7	85.2	81.2	107	114	107	95.2	87.2	77.8	95.8	98.7	89.9	viability, T/C [16]: 79.9%; viability, T/C [17]: 66%; viability, T/C [18]: 74%; viability, T/C [19]: 59%; viability, T/C [20]: 55.3%; viability, T/C [21]: 52.3%; viability, T/C [22]: 46.2%; viability, T/C [23]: 46.5%; viability, T/C [24]: 52.8%; viability, T/C [25]: 49.5%; viability, T/C [26]: 47%; viability, T/C [27]: 44.4%; viability, T/C [28]: 45.6%; viability, T/C [29]: 46.4%; viability, T/C [30]: 56.9%
[2H]c1nc(C)nc([2H])c1-c1cc(NC[C@@H](C)c2cccc3c(C(=O)NC)ccnc23)ncn1 + CC[C@@]1(O)C(=O)OCc2c1cc1n(c2=O)Cc2cc3c(CN(C)C)c(O)ccc3nc2-1	> 10	> 10	> 10	> 10	> 10	111	113	110	107	107	104	112	106	107	108	97.8	100	103	101	97.8	viability, T/C [16]: 91.3%; viability, T/C [17]: 94.6%; viability, T/C [18]: 97.4%; viability, T/C [19]: 67.8%; viability, T/C [20]: 75.8%; viability, T/C [21]: 67.8%; viability, T/C [22]: 66.2%; viability, T/C [23]: 68%; viability, T/C [24]: 68.4%; viability, T/C [25]: 80.2%; viability, T/C [26]: 72.8%; viability, T/C [27]: 77.1%; viability, T/C [28]: 71.4%; viability, T/C [29]: 74.8%; viability, T/C [30]: 66.6%
